Molecules are shown by their SMILES.

One may read the IC50 as the concentration that gives 50% inhibition. A high value points to weaker potency.

In one test the target is h4D7 (Homo sapiens, UniProt Q08499). In words: In-vitro assay for PDE4 enzymes, real-time enzyme-coupled spectrophotometric assay (Table 3). Format: biochemical. On the procedure: (§1) In-vitro assay for PDE4 enzymes. The in-vitro activity of PDE4 enzymes and the in-vitro potency of therapeutic agents described in the present invention was measured using a real-time, enzyme-coupled spectrophotometric assay. By using three different coupling enzymes, the product of the PDE4 reaction is coupled to the oxidation of the reduced form β-nicotinamide adenine dinucleotide (NADH), which dissipation can be monitored spectrophotmetrically at […]. Assay description. Buffer A containing 50 mM Tris, pH 8.0, 16 mM MgCl2 and 80 mM KCl is prepared and stored at room temperature. Buffer B containing 50 mM Tris, pH 8.0 is prepared and stored at toom temperature. Stock solutions of the following reagents are prepared in Buffer B and stored at −20° C.: Adenosine-5′-triphosphate (ATP), cyclic adenosine-5′-monophosphate (cAMP), phosphoenolpyruvate (PEP) and NADH. An assay mix is prepared by mixing Buffer A, […] (TCEP), ATP, PEP, NADH, myokinase (MK), pyruvate kinase (PK), lactate dehydroganese (LDH) and PDE4 to a final volume of 20 mL, which is enough for a single 96-well assay plate. Assay mix (180 μL) and test article (10 μL) in 1:1 DMSO/H2O mixture is pre-incubated at room temperature for 10 min. The enzymatic reaction is initiated by addition of cAMP (10 μL). Final concentration of all components in the assay (200 μL/well) are as follows: 10 mM MgCl2, 50 mM KCl, 5 mM TCEP, 2.5% DMSO, 0.4 mM NADH, 1 mM PEP, 0.04 mM ATP, 5 units MK, 1 unit PK, 1 unit LDH and appropriate amount of PDE4. Reaction progress curves are monitored in a plate reader capable of measuring light absorbance at 340 nm. A decrease in light absorbance at 340 nm is due to oxidation of NADH. Positive controls containing no test article and negative controls containing no test article and no cAMP are included on every assay plate. Reaction rates are determined from the slopes of the linear portions of the progress curves. All data is percent normalized with respect to controls and presented as percent inhibition.

The target of the next test is h4B1 (Homo sapiens, UniProt Q07343). The test is described as above. It is filed as biochemical. On the procedure:
as §1

h4D7, sequence (Q08499 1-748 isoform Q08499-11): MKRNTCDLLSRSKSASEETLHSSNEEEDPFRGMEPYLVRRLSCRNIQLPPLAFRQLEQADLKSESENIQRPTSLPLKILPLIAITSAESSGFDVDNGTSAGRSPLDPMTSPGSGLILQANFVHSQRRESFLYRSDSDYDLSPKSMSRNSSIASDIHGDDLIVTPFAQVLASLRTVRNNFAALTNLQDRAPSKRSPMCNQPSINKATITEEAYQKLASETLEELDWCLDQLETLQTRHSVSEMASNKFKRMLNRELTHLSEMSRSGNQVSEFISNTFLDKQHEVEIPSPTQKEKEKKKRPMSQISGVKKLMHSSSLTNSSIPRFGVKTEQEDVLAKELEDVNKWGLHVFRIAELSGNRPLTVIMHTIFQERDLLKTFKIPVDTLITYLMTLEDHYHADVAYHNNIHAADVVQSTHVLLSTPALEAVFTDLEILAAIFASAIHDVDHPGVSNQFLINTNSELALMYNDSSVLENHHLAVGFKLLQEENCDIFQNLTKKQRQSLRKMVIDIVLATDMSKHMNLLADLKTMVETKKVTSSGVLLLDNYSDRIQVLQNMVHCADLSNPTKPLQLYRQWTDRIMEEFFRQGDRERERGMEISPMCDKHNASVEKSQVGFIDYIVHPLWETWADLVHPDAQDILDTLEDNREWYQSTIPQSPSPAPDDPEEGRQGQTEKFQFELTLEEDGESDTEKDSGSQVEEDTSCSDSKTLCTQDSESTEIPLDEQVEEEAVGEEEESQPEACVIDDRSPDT
h4B1, sequence (Q07343 whole entry): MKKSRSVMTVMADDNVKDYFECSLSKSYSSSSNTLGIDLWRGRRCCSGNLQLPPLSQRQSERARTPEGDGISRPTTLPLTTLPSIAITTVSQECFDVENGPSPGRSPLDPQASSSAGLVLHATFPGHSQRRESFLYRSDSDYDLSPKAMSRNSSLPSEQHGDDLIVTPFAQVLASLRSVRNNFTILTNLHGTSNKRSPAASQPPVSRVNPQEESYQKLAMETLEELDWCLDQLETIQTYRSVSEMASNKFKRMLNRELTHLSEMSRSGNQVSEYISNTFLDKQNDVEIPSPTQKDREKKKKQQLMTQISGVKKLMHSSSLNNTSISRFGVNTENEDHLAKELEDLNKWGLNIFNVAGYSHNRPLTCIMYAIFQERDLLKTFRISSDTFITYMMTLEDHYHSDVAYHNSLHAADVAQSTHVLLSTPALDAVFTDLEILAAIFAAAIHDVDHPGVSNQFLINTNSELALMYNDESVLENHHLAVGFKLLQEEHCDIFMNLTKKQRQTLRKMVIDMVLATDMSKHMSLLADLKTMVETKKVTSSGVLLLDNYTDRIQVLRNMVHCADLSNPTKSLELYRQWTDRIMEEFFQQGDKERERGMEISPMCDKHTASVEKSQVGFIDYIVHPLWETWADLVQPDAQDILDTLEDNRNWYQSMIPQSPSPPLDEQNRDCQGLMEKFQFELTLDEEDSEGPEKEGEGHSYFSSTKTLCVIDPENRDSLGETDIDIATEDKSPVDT

As for `CS(=O)(=O)Nc1ccc(Cc2cc(-c3cccc(Cl)c3)c3nc(N)oc3c2)cc1` [Example 20, N-{4-[2-Amino-4-(3-chloro-phenyl)-benzooxazol-6-ylmethyl]-phenyl}-methanesulfonamide], the IC50 against h4D7 was below 1 µM; on h4B1 it was 1 to 10 µM. The corresponding values for `Nc1nc2c(-c3cccc(C(F)(F)F)c3)cc(Cc3ccc(F)cc3)cc2s1` [Example 7, 6-(4-Fluoro-benzyl)-4-(3-trifluoromethyl-phenyl)-benzothiazol-2-ylamine] are below 1 µM and 1 to 10 µM. Turning to `CS(=O)(=O)Nc1ccc(Cc2cc3sc(N)nc3c(-c3cccc(Cl)c3)c2F)cc1` [Example 19, N-{4-[2-amino-4-(3-chloro-phenyl)-5-fluoro-benzothiazol-6-ylmethyl]-phenyl}-methanesulfonamide], the IC50 against h4D7 and at h4B1 was 1 to 10 µM each time.

For `Nc1ccc(Cc2cc(-c3cccc(Cl)c3)c3ncsc3c2)cc1` [Example 25, 4-[4-(3-Chloro-phenyl)-benzothiazol-6-ylmethyl]-phenylamine], the IC50 at h4D7 and against h4B1 was below 1 µM in each case. `CC(=O)N1CCN(Cc2cc3scnc3c(-c3cccc(Cl)c3)c2F)CC1` [Example 44, 1-{4-[4-(3-Chloro-phenyl)-5-fluoro-benzothiazol-6-ylmethyl]-piperazin-1-yl}-ethanone]: the results for the IC50 against h4D7 and against h4B1 were 1 to 10 µM and 10 to 20 µM, respectively. Take `Nc1nc2c(-c3ccc4c(c3)OCO4)nc(Cc3ccc(F)cc3)nc2s1` [Example 11, 7-Benzo[1,3]dioxol-5-yl-5-(4-fluorobenzyl)-thiazolo[5,4-d]pyrimidin-2-ylamine]: the IC50 against h4D7 is below 1 µM; on h4B1, 1 to 10 µM.

Turning to `NC(=O)Nc1ccc(Cc2cc3sc(N)nc3c(-c3cccc(Cl)c3)c2F)cc1` [Example 21, {4-[2-amino-4-(3-chloro-phenyl)-5-fluoro-benzothiazol-6-ylmethyl]-phenyl}-urea], the IC50 on h4D7 and on h4B1 was below 1 µM in each case. As to `Nc1nc2c(-c3ccc4c(c3)OCO4)cc(Cn3cccn3)cc2s1` [Example 9, 4-Benzo[1,3]dioxol-5-yl-6-pyrazol-1-ylmethyl-benzothiazol-2-ylamine], the concentration for half-maximal inhibition (IC50) against h4D7 and against h4B1 was 1 to 10 µM each time.

As for `Cn1nccc1Cc1cc(-c2ccc3c(c2)OCO3)c2nc(N)sc2c1` [Example 8, 4-Benzo[1,3]dioxol-5-yl-6-(2-methyl-2H-pyrazol-3-ylmethyl)-benzothiazol-2-ylamine], the IC50 is below 1 µM against h4D7 and 1 to 10 µM against h4B1. Take `Nc1ccc(Cc2cc(-c3cccc(Cl)c3)c3nc(N)oc3c2)cc1` [Example 32, 6-(4-aminobenzyl)-4-(3-chlorophenyl)-1,3-benzoxazol-2-amine]: the IC50 at h4D7 and against h4B1 was below 1 µM throughout.

For the compound `NC(=O)N1CCN(Cc2cc3scnc3c(-c3cccc(Cl)c3)c2F)CC1` [Example 31, 4-[4-(3-Chloro-phenyl)-5-fluoro-benzothiazol-6-ylmethyl]-piperazine-1-carboxylic acid amide], the IC50 against h4D7 and at h4B1 was below 1 µM each time. Turning to `CCOC(=O)Nc1ccc(Cc2cc3scnc3c(-c3cccc(Cl)c3)c2F)cn1` [Example 40, {5-[4-(3-chloro-phenyl)-5-fluoro-benzothiazol-6-ylmethyl]-pyridin-2-yl}-carbamic acid ethyl ester], the IC50 at h4D7 is below 1 µM; against h4B1, above 30 µM. In the case of `CCOC(=O)NC1CCN(Cc2cc3scnc3c(-c3cccc(Cl)c3)c2F)CC1` [Example 45, {1-[4-(3-Chloro-phenyl)-5-fluoro-benzothiazol-6-ylmethyl]-piperidin-4-yl}-carbamic acid ethyl ester], the IC50 on h4D7 was below 1 µM; against h4B1, 1 to 10 µM. Consider `CCNC(=O)Nc1ccc(Cc2cc3scnc3c(-c3cccc(Cl)c3)c2F)cn1` [Example 33, 1-[5-[4-(3-chloro-phenyl)-5-fluoro-benzothiazol-6-ylmethyl]-pyridin-2-yl]-3-ethyl-urea], for which the IC50 at h4D7 and on h4B1 was below 1 µM throughout. As to `Cc1nc2c(-c3cccc(Cl)c3)cc(Cc3ccc(NC(N)=O)cc3)cc2o1` [Example 24, N-(4-{[4-(3-chlorophenyl)-2-methyl-1,3-benzoxazol-6-yl]methyl}phenyl)urea], the IC50 on h4D7 and on h4B1 was below 1 µM throughout. In the case of `Cc1nc2c(-c3cccc(Cl)c3)cc(Cc3ccc(N)cc3)cc2o1` [Example 22, 4-{[4-(3-chlorophenyl)-2-methyl-1,3-benzoxazol-6-yl]methyl}aniline], the IC50 against h4D7 and against h4B1 was below 1 µM in each case.

In the case of `Nc1nc2c(-c3ccc4nonc4c3)cc(Cc3ccc(F)cc3)cc2s1` [Example 3, 4-Benzol[1,2,5]oxadiazol-5-yl-6-(4-fluoro-benzyl)-benzothiazol-2-yl amine], the IC50 at h4D7 was below 1 µM; on h4B1 it was 1 to 10 µM. In the case of `Nc1nc2c(-c3cccc([N+](=O)[O-])c3)cc(Cn3ccnc3)cc2s1` [Example 2, 6-imidazol-1-ylmethyl-4-(3-nitro-phenyl)-benzothiazol-2-ylamine], the IC50 against h4D7 and at h4B1 was below 1 µM each time. Regarding `Nc1nc2c(-c3cccc([N+](=O)[O-])c3)cc(Cc3ccc(F)cc3)cc2s1` [Example 1, 6-(4-fluorobenzyl)-4-(3-nitrophenyl)-benzothiazol-2-yl amine], the values for the IC50 against h4D7 and at h4B1 were below 1 µM and 1 to 10 µM, respectively. As for `Nc1ccc(Cc2cc3scnc3c(-c3cccc(Cl)c3)c2F)cc1` [Example 23, 4-[4-(3-chloro-phenyl)-5-fluoro-benzothiazol-6-ylmethyl]-phenylamine], the IC50 on h4D7 and on h4B1 was below 1 µM in each case. `CC(=O)c1cccc(-c2cc(Cn3cccn3)cc3sc(N)nc23)c1` [Example 12, 1-[3-(2-Amino-6-pyrazol-1-ylmethyl-benzothiazol-4-yl)-phenyl]-ethanone]: the half-maximal inhibitory concentration (IC50) on h4D7 was below 1 µM; against h4B1 it was 1 to 10 µM. Taken in the same sequence, the figures for `Nc1ccc(Cc2cc3sc(N)nc3c(-c3cccc([N+](=O)[O-])c3)c2O)cc1` [Example 15, 2-Amino-6-(4-amino-benzyl)-4-(3-nitro-phenyl)-benzothiazol-5-ol] were below 1 µM and below 1 µM. The corresponding values for `Nc1ccc(Cc2cc(-c3cccc(Cl)c3)c3nc(N)sc3c2)cc1` [Example 26, 6-(4-Amino-benzyl)-4-(3-chloro-phenyl)-benzothiazol-2-ylamine] are below 1 µM and below 1 µM. For the compound `Oc1cccc(Cc2cc3scnc3c(-c3cccc(Cl)c3)c2F)c1` [Example 39, 3-[4-(3-chloro-phenyl)-5-fluoro-benzothiazol-6-ylmethyl]-phenol], the values for the IC50 at h4D7 and against h4B1 were below 1 µM and 1 to 10 µM, respectively. As to `Nc1ccc(Cc2cc3sc(N)nc3c(-c3cccc(Cl)c3)c2F)cc1` [Example 16, 6-(4-amino-benzyl)-4-(3-chloro-phenyl)-5-fluoro-benzothiazol-2-ylamine], the IC50 on h4D7 is below 1 µM. In the case of `CS(=O)(=O)Nc1ccc(Cc2cc(-c3cccc(Cl)c3)c3nc(N)sc3c2)cc1` [Example 18, N-{4-[2-Amino-4-(3-chloro-phenyl)-benzothiazol-6-ylmethyl]-phenyl}-methanesulfonamide], the concentration for half-maximal inhibition (IC50) against h4D7 was below 1 µM; at h4B1, 1 to 10 µM. On to `Nc1nc2c(-c3ccc4c(c3)OCO4)cc(Cc3ccc(F)cc3)cc2s1` [Example 4, 4-Benzo[1,3]dioxol-5-yl-6-(4-fluoro-benzyl)-benzothiazol-2-ylamine], for which the IC50 was below 1 µM against h4D7 and 1 to 10 µM against h4B1.

`CSc1cccc(-c2cc(Cn3cccn3)cc3sc(N)nc23)c1` [Example 14, 4-(3-Methylsulfanyl-phenyl)-6-pyrazol-1-ylmethyl-benzothiazol-2-ylamine]: the IC50 is below 1 µM on h4D7 and 1 to 10 µM against h4B1. For `Cn1nccc1C(O)c1cc(-c2ccc3c(c2)OCO3)c2nc(N)sc2c1` (stereo not shown) [Example 6, (2-Amino-4-benzo[1,3]dioxol-5-yl-benzothiazol-6-yl)-(2-methyl-2H-pyrazol-3-yl)-methanol], the values for the 50% inhibitory concentration (IC50) on h4D7 and at h4B1 were 1 to 10 µM and 10 to 20 µM, respectively. For `Nc1nc2c(-c3cccc(Br)c3)cc(Cc3ccc(F)cc3)cc2s1` [Example 13, 4-(3-bromophenyl)-6-(4-fluorobenzyl)-1,3-benzothiazol-2-amine], the IC50 against h4D7 is below 1 µM; at h4B1, 1 to 10 µM.

As for `CCNC(=O)Nc1ccc(Cc2cc3scnc3c(-c3cccc(Cl)c3)c2F)cc1` [Example 30, 1-{4-[4-(3-chloro-phenyl)-5-fluoro-benzothiazol-6-ylmethyl]-phenyl}-3-ethyl-urea], the IC50 on h4D7 and on h4B1 was below 1 µM each time.

Source of the values: US8883833B2, “Substituted benzoazole PDE4 inhibitors for treating inflammatory, cardiovascular and CNS disorders” (Decode Genetics EHF, priority 2007, dated 2014).
